Active and inactive are the calls of the source.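 How the source made its calls: active means AC50, the dose giving half-maximal effect, exceeds a fixed cutoff for a compound that rescues yeast growth under heat; inactive means the rest, inconclusive results apart.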
Tested on: S. cerevisiae Burl-1 ts mutant growth, BacTiter-Glo, 38.5C 24 h
Experiment: growth induction of Burl-1 ts yeast mutant, dose response, counter-screen for SUMOylation pathway inhibitor project, whole organism, S. cerevisiae, luminescence (AID 463199)

SMILES	AC50
OC(COc1ccccc1)Cn1c2ccccc2c2ccccc21 (stereo not given)	> 42 µM (inactive)
COC(=O)c1ccncc1C(=O)Nc1ccc(Oc2ncc(C(F)(F)F)cc2Cl)cc1	> 42 µM (inactive)
CCc1ccc(NC(=S)N(Cc2cccc(Br)c2)CC2CCC(C(=O)O)CC2)cc1 (stereo not given)	> 42 µM (inactive)
O=C(NNC(=O)c1ccccc1O)c1ccco1	> 42 µM (inactive)
Cc1cc(S(=O)(=O)N2CCCC(N3CCOCC3)C2)c(C)cc1Cl (stereo not given)	> 42 µM (inactive)
Cc1cc(C)n(C(=O)CNC(=O)c2ccc3c(c2)OCCO3)n1	> 42 µM (inactive)
S=c1[nH]ccn1-c1cccc(Cl)c1	> 42 µM (inactive)
CSc1cccc(NC(=S)N2CCCN(Cc3ccccc3F)C2)c1	> 42 µM (inactive)
COc1ccc(NC(=O)CCC(=O)Nc2nnc(C(F)(F)F)s2)c(OC)c1	> 42 µM (inactive)
Oc1c(Br)cc(Br)cc1C=Nc1ccc2[nH]ncc2c1	> 42 µM (inactive)
Oc1ccc(C2=CSC3=NCCN23)cc1O	> 42 µM (inactive)
Cc1cc(C(=O)OCC(=O)Nc2cccc(S(N)(=O)=O)c2)c2ccccc2n1	> 42 µM (inactive)
CCCN(CCC)C(=O)CSc1ncccc1C(=O)O	> 42 µM (inactive)
N#C/C(=C\Nc1ccc2c(c1)OCCO2)c1nc2ccccc2[nH]1	> 42 µM (inactive)
O=C(Nc1nc2ccccc2s1)c1cccc(S(=O)(=O)N2CCc3ccccc32)c1	> 42 µM (inactive)
CN1CCN(C(=O)CCN2C(=O)/C(=C/c3ccccc3Cl)SC2=S)CC1	> 42 µM (inactive)
N=c1sccn1CC(=O)Nc1cccc(S(N)(=O)=O)c1	> 42 µM (inactive)
O=C(COC(=O)c1ccc([N+](=O)[O-])o1)Nc1ncc(Cl)cc1Cl	> 42 µM (inactive)
Clc1ccc(CONc2ncnc3nonc23)c(Cl)c1	9.28 µM
CCOC(=O)C1CCN(C(=O)COc2ccc(S(=O)(=O)N3CCOCC3)cc2C)CC1	> 42 µM (inactive)
O=C(OCC(=O)N1CCN(Cc2ccccc2)CC1)c1ccc(Cl)cc1	> 42 µM (inactive)
Cc1cc(C)n(C(=O)c2ccccc2[N+](=O)[O-])n1	> 42 µM (inactive)
CCOc1ccccc1NC(=O)CSc1nc(N)c(C#N)cc1C#N	> 42 µM (inactive)
COc1ccc(-c2csc(Nc3cc(C)ccn3)n2)cc1C	> 42 µM (inactive)
Cc1ccc(CSCCNC(=O)c2ccc(NS(C)(=O)=O)cc2)cc1	> 42 µM (inactive)

SMILES	AC50
CCOC(=O)c1sc(N/N=C/c2ccc(N(C)C)cc2)nc1C	> 42 µM (inactive)
CS(=O)(=O)c1ccc(Cl)c(NC(=O)c2ccc3ccccc3c2)c1	> 42 µM (inactive)
Cc1cccc(NC(=O)CCc2ccccc2)c1	> 42 µM (inactive)
Cc1c(C)c2c(c(C)c1O)CCC(C)(C(=O)O)O2 (stereo not given)	> 42 µM (inactive)
COC(=O)[C@H](Cc1ccccc1)NC(=O)NC(C)CCc1ccccc1 (stereo not given in full)	> 42 µM (inactive)
C=CCOC(=O)C(C#N)c1nc2ccccc2nc1N1CCN(Cc2ccccc2)CC1 (stereo not given)	> 42 µM (inactive)
COc1cc(C(=O)OCC(=O)NC(C)CCc2ccccc2)cc(OC)c1OC (stereo not given)	> 42 µM (inactive)
O=C(CSc1nc2ccc(Cl)cc2[nH]1)NCc1ccco1	> 42 µM (inactive)
O=C1C2CCCN2C(=S)N1C1CCCCC1 (stereo not given)	> 42 µM (inactive)
CC1CN(Cc2ccccc2)c2nc3c(c(=O)[nH]c(=O)n3C)n2C1 (stereo not given)	> 42 µM (inactive)
O=c1[nH]c(O)c(N=Nc2cc([N+](=O)[O-])ccc2O)c(=O)[nH]1	> 42 µM (inactive)
O=C(CC(c1ccccc1)c1ccccc1O)NCCN1CCOCC1 (stereo not given)	> 42 µM (inactive)
CCn1c(N2CCN(C(=O)C34CC5CC(CC(C5)C3)C4)CC2)nc2ccccc21	> 42 µM (inactive)
O=C(c1cccnc1)N1CCCC(Nc2ccc(F)cc2)C1 (stereo not given)	> 42 µM (inactive)
COc1ccc(OC)c(N(CC(=O)N2CCCC2)S(=O)(=O)c2ccccc2)c1	> 42 µM (inactive)
Cc1ccc(-c2nc(CS(=O)(=O)CC(=O)NC3CCCCC3C)c(C)o2)cc1 (stereo not given)	> 42 µM (inactive)
COCCn1c(=NC(=O)c2ccc(S(=O)(=O)N3CCOCC3)cc2)sc2cc(S(N)(=O)=O)ccc21	> 42 µM (inactive)
CCOc1ccc(C(=O)Nc2ccc(N3CCN(C)CC3)cc2)cc1[N+](=O)[O-]	> 42 µM (inactive)
O=S(=O)(Nc1cccc2cn[nH]c12)c1ccc(F)cc1	> 42 µM (inactive)
CC1(C)CC(=O)C(C=Nc2ccc(O)c(N=CC3=C(O)CC(C)(C)CC3=O)c2)=C(O)C1	> 42 µM (inactive)
COC(CNC(=O)c1cn(C)c2ccc(S(=O)(=O)N3CCOCC3)cc2c1=O)OC	> 42 µM (inactive)
Cc1ccc(CC2CC(=O)N(c3ccc4c(c3)OCCO4)C2=O)cc1 (stereo not given)	> 42 µM (inactive)
COCC(C)n1c(C)cc(C(=O)CSc2ccc(NC(C)=O)cc2)c1C (stereo not given)	> 42 µM (inactive)
O=C(c1ccco1)N1CCN(C(=O)C2Cc3ccccc3CN2S(=O)(=O)c2ccc(F)cc2)CC1 (stereo not given)	> 42 µM (inactive)
C/C(=N\NC(=S)Nc1ccccc1)C1Cc2ccccc2C(=O)O1 (stereo not given)	> 42 µM (inactive)
